From the supplement of paper PMC10949913

How the values were obtained:
Details in all cases: 48 h
CU-ACC2 [1] = assay: AC50 viability; higher = less potent
Summary of the method: (§1)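 In 1,536-well plates, 500–1,000 cells/well of three adrenocortical carcinoma cell lines in 5 µL medium received 23 nL of each library compound across 11 concentrations. At 48 h, CellTiter-Glo was incubated for 15 minutes at room temperature and luminescence measured. Per-plate normalisation used vehicle and empty-well controls, and only inhibitory or non-responding curve classes were kept when fitting concentration-response curves for AC50 and area under the curve.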

CU-ACC1 = assay: area under concentration-response curve (viability) (AUC (a.u.)); higher = less active
Summary of the method: as §1

NCI-H295R [2] = assay: as above
Summary of the method: as §1

CU-ACC2 [3] = assay: as above
Summary of the method: as §1

NCI-H295R [4] = assay: AC50 viability; higher = less potent
Summary of the method: as §1

SMILES	AC50 viability (CU-ACC2 [1])	area under concentration-response curve (CU-ACC1)	area under concentration-response curve (NCI-H295R [2])	area under concentration-response curve (CU-ACC2 [3])	AC50 viability (NCI-H295R [4])
CC(C)(C)OC(=O)CN(Cc1ccc(Cl)cc1)Cc1ccc([N+](=O)[O-])s1	37.2 µM	410	405	479	
Cn1cc(/C=C2\C(=O)Nc3cccnc32)c2ccccc21	0.105 µM	349	373	320	
CCC1=C2CN3C(=O)\C4=C(/C=C3/C2=NC5=CC=C(O)C=C15)[C@@](O)(CC)C(=O)OC4	0.468 µM	401	524	447	
O=C(O)c1ccc2cc(-c3ccc(O)c(C45CC6CC(CC(C6)C4)C5)c3)ccc2c1	5.25 µM		474	452	3.72 µM
NC(=O)c1ccc2[nH]ccc2c1	0.59 µM	345	395	360	
O=C(Nc1cccc(Nc2ncc(Br)c(NCCc3cnc[nH]3)n2)c1)N1CCCC1	16.6 µM		397	418	23.5 µM
CC(C)N(CCC(=O)c1ccc2ccccc2c1)Cc1ccccc1	20.9 µM	557	603	609	
CC(C)(C)c1cc(NC(=O)Nc2ccc(-c3cn4c(n3)sc3cc(OCCN5CCOCC5)ccc34)cc2)no1	3.72 µM	489	511	539	
N#Cc1ccnc(Nc2cc(C3CCN(C4COC4)CC3)cc(N3CCC(F)(F)C3)n2)c1	1.66 µM	458	471	467	
CC(C)(C)C(=O)Oc1ccc([S+](=O)([O-])Nc2ccccc2C(=O)NCC(=O)O)cc1	0.105 µM	318	348	313	
Nc1nc(Nc2ccc3c(c2)CC[C@@H](N2CCCC2)CC3)nn1-c1cc2c(nn1)-c1ccccc1CCC2	23.5 µM		441	534	23.5 µM
COc1cc2c(Nc3ccc(NC(=O)c4ccccc4)cc3)ncnc2cc1OCCCN1CCOCC1	20.9 µM		505	566	18.6 µM
CN(C1=CC=CC=C1)C(=O)C/2=C(O)/C3=C(C=CC=C3)N(C)C2=O	37.2 µM	344	317	399	
CCC[C@H](Nc1nc(-c2ccc(NC(=O)NCC)c(OC)c2)ncc1C)c1cccnc1	0.372 µM		333	338	1.32 µM
CC1(C)SCCN([S+](=O)([O-])c2ccc(OCC#CCO)cc2)[C@H]1C(=O)NO	2.95 µM	446	421	437	
O=C(Nc1ccc2[nH]nc(-c3ccncc3)c2c1)[C@@H]1CCN(CC(=O)N2CCN(c3ccc(-c4ncccn4)cc3)CC2)C1	11.8 µM	444	482	476	
CC(C)COCC(CN(Cc1ccccc1)c1ccccc1)N1CCCC1 (stereo unspecified)	26.3 µM		536	583	23.5 µM
C[C@@H](Oc1cc(-c2cnn(C3CCNCC3)c2)cnc1N)c1c(Cl)ccc(F)c1Cl	16.6 µM		353	407	3.72 µM
CC(C)c1cccc(C(C)C)c1O	14.8 µM	362	415	400	
CC(C)OC(=O)[C@H](C)N[P@](=O)(OC[C@H]1O[C@@H](N2\C=C/C(=O)NC2=O)[C@](C)(F)[C@@H]1O)OC3=CC=CC=C3	5.9 µM	388	386	414	
CCOc1cc(N2CCC(O)CC2)ccc1Nc1ncc2c(n1)N(C)c1ccccc1C(=O)N2C	20.9 µM	450	479	525	
Cc1cc2c(cc1CC(=O)c1sccc1[S+](=O)([O-])Nc1onc(C)c1Cl)OCO2	0.105 µM		127	242	0.00417 µM
CCN(CC)C(=S)SSC(=S)N(CC)CC	14.8 µM	366	472	465	
COc1cc(OC)c(NC(=O)Nc2cc(C)on2)cc1Cl	23.5 µM	408	432	484	
